The source of these data is ChEMBL document CHEMBL1201862, “PubChem BioAssay data set” (2004).

Assay [1] has as its system INS1. The assay is described as follows: INS-1E survival protection against cytokine death – cell-based, luminescence, retest, dose response (AID 449756).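 Also: cell death triggered by IL-1 beta plus TNF-alpha plus IFN-gamma mixture; protective hits raise ATP signal compared with cytokine alone wells.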 Type of assay: functional. The settings on record: Rattus norvegicus.
Assay [2] has as its target T1, Caspase-3 (Homo sapiens, UniProt P42574).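 Also: Dose-response selectivity test against caspase-3 for candidate inhibitors of sentrin-specific proteases (SENPs).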
T1 sequence (P42574 whole entry): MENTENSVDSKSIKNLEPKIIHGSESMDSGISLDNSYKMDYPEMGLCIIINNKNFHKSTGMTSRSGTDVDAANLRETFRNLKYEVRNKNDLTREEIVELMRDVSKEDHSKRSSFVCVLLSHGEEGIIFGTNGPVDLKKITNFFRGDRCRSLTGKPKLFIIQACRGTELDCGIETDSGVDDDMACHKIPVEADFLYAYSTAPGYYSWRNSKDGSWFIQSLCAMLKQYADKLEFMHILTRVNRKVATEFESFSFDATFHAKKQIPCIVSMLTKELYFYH
Format: functional.

Assay [3] has as its target T2, Sentrin-specific protease 6 (Homo sapiens, UniProt Q9GZR1).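 Also: Luminescence-based dose-response confirmatory assay of SENP6 inhibition, following up an ultra-high-throughput screen.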
T2 sequence (Q9GZR1 whole entry): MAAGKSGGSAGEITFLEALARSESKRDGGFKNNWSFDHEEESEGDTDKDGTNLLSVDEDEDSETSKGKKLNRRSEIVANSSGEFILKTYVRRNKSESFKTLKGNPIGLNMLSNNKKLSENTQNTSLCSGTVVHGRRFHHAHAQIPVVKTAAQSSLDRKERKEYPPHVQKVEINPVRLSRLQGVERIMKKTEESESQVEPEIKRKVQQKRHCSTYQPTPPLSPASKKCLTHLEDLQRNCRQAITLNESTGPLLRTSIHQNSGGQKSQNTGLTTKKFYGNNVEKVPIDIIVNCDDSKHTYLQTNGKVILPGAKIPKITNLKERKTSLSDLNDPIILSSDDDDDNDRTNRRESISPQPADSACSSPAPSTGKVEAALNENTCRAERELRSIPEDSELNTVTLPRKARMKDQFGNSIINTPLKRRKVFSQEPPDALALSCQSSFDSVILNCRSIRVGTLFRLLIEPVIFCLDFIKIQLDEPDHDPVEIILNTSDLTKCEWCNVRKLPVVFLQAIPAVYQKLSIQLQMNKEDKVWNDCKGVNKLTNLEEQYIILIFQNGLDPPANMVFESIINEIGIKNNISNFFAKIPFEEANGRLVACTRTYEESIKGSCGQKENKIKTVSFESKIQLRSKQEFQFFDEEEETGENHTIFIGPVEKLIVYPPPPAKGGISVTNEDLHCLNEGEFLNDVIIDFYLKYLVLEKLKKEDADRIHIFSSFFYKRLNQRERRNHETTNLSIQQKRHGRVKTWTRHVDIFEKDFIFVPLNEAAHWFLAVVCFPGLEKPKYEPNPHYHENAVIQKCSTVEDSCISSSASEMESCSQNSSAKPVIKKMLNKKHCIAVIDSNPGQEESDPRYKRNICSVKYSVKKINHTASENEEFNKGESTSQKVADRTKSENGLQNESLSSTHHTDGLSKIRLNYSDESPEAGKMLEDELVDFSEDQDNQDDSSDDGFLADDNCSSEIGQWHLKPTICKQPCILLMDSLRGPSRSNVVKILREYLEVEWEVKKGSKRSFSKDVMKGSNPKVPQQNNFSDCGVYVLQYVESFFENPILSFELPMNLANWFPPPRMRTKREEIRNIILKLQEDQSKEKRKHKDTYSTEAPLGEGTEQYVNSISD
Format: functional.

In assay [4] the target is T3, Tyrosyl-DNA phosphodiesterase 2 (Homo sapiens, UniProt O95551).
T3 sequence (O95551 whole entry): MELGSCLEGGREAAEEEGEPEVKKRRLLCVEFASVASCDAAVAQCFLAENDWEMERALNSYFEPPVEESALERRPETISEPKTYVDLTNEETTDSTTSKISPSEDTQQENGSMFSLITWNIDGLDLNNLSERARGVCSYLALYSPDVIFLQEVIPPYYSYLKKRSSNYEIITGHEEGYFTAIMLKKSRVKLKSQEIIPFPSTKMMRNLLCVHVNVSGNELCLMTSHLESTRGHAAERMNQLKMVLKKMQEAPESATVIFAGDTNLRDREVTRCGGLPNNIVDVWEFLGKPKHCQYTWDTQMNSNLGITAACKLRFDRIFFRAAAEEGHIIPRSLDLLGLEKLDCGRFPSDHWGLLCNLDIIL
The assay is described as follows: potency against TDP2 phosphodiesterase activity – biochemical, epi absorbance, IC50, dose response (AID 743297).

Assay [5] deals with BJ. The assay is described as follows: cells. Format: functional, cell-based. The note with it: Homo sapiens.
In assay [6] the target is Nonstructural protein 1 (Influenza A virus, UniProt Q194T2). Format: functional, Influenza A virus (A/California/07/2009(H1N1)).
Assay [7] addresses Tyrosine-protein kinase BTK (Homo sapiens, UniProt Q06187). Format: functional.
In assay [8] the target is Protein kinase C theta type (Homo sapiens, UniProt Q04759). The assay is described as follows: Navigating the Kinome. Panel member name: PRKCQ. Format: functional.
The target in assay [9] is Activin receptor type-1 (Homo sapiens, UniProt Q04771). Kind of assay: Navigating the Kinome. Panel member name: ACVR1. Type of assay: functional.
For assay [10], the target named is Tyrosine-protein kinase JAK3 (Homo sapiens, UniProt P52333). Type of assay: functional.
For assay [11], the target named is Mitogen-activated protein kinase 8 (Homo sapiens, UniProt P45983). Type of assay: functional.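 Also: value comes from one member of a kinome-wide kinase profiling panel.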
The target of assay [12] is Hepatocyte growth factor receptor (Homo sapiens, UniProt P08581). Type of assay: functional.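 Also: kinase panel profiling across the kinome, with MET as the panel member.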
Assay [13] deals with BDNF/NT-3 growth factors receptor (Homo sapiens, UniProt Q16620). Type of assay: functional.
In assay [14] the target is Ribosomal protein S6 kinase alpha-3 (Homo sapiens, UniProt P51812). Type of assay: functional.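 Also: measured within a kinome-wide profiling panel.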
In assay [15] the target is Vascular endothelial growth factor receptor 2 (Homo sapiens, UniProt P35968). Format: functional.
Assay [16] deals with Dual specificity protein kinase CLK2 (Homo sapiens, UniProt P49760). Type of assay: functional.
Assay [17] addresses Calcium/calmodulin-dependent protein kinase type II subunit alpha (Homo sapiens, UniProt Q9UQM7). Kind of assay: Navigating the Kinome. Panel member name: CAMK2A. Format: functional.
Assay [18] addresses Tyrosine-protein kinase JAK2 (Homo sapiens, UniProt O60674). Format: functional.
The target of assay [19] is Serine/threonine-protein kinase TAO1 (Homo sapiens, UniProt Q7L7X3). Type of assay: functional.
Assay [20] deals with Activated CDC42 kinase 1 (Homo sapiens, UniProt Q07912). The assay is described as follows: Navigating the Kinome. Panel member name: ACK1. Format: functional.
Assay [21] concerns the target High affinity nerve growth factor receptor (Homo sapiens, UniProt P04629). Type of assay: functional.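 Also: NTRK1 tested as one member of a kinome-wide profiling panel.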
Assay [22] has as its target Focal adhesion kinase 1 (Homo sapiens, UniProt Q05397). Type of assay: functional.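 Also: measured as one member of a kinome panel.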

Activity calls are given as the source filed them.

Sequence of Tyrosine-protein kinase JAK3 (P52333 whole entry): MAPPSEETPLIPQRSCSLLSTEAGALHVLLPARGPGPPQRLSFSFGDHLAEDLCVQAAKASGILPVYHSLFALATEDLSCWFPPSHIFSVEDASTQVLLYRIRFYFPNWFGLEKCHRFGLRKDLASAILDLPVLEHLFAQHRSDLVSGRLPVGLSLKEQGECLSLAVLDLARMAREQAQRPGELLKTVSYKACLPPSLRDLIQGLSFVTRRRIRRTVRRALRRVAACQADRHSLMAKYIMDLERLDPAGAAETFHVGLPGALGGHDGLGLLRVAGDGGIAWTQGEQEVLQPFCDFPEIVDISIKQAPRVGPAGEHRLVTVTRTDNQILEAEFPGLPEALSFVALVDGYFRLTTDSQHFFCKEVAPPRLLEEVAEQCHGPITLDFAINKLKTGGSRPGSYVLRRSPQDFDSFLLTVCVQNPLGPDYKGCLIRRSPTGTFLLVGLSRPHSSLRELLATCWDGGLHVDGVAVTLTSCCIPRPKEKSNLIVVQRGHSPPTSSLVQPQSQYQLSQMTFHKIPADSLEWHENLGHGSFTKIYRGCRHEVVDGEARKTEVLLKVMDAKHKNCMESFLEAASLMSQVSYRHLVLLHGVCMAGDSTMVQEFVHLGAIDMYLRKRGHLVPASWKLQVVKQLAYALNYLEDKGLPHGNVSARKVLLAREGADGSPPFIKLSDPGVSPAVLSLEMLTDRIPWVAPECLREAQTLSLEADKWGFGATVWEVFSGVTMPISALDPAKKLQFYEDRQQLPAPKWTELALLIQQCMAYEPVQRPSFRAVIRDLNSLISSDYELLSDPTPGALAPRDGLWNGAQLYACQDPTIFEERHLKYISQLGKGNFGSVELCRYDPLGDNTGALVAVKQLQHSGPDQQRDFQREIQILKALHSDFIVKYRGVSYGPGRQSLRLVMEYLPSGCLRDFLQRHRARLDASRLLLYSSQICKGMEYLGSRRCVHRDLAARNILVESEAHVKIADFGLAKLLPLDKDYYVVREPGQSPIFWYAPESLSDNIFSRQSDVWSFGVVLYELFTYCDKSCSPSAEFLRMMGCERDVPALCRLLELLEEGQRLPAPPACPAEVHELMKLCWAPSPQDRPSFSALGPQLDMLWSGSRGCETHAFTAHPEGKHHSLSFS
Sequence of Hepatocyte growth factor receptor (P08581 whole entry): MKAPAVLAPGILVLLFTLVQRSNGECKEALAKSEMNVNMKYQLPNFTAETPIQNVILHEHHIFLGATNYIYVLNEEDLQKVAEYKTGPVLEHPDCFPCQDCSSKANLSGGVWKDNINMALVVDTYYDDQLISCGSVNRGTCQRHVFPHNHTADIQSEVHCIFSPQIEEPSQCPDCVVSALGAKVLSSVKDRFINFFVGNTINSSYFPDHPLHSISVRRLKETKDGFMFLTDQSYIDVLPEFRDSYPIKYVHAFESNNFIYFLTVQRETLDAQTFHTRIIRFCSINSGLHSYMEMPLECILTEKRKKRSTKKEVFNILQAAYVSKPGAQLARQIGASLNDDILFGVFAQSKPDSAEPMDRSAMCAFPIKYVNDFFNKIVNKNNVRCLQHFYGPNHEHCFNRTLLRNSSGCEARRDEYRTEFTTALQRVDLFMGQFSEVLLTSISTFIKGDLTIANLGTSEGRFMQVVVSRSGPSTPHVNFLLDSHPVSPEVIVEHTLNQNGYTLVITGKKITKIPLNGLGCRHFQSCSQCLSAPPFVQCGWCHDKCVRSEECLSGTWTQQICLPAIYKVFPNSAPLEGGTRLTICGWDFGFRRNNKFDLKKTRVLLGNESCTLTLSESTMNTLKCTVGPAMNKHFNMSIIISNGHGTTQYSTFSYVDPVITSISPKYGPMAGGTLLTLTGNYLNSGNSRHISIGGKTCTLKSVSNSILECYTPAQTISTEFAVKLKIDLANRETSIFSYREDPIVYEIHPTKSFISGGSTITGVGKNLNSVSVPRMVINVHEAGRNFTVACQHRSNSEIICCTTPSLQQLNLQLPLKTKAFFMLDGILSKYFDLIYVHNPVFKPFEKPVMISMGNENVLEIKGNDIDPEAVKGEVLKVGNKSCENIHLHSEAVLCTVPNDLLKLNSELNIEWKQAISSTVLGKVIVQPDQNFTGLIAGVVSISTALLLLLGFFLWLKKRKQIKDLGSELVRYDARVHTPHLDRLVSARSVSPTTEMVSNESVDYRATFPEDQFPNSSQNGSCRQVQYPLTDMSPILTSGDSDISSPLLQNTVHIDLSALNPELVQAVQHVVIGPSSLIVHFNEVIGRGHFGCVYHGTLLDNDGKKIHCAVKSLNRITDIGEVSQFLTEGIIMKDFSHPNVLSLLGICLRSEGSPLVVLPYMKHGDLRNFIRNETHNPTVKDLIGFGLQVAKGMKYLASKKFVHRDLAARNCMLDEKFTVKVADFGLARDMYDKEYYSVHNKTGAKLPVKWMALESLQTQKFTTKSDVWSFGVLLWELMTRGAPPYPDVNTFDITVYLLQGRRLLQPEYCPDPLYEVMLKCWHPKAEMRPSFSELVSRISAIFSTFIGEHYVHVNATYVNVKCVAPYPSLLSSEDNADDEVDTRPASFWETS
Sequence of Ribosomal protein S6 kinase alpha-3 (P51812 whole entry): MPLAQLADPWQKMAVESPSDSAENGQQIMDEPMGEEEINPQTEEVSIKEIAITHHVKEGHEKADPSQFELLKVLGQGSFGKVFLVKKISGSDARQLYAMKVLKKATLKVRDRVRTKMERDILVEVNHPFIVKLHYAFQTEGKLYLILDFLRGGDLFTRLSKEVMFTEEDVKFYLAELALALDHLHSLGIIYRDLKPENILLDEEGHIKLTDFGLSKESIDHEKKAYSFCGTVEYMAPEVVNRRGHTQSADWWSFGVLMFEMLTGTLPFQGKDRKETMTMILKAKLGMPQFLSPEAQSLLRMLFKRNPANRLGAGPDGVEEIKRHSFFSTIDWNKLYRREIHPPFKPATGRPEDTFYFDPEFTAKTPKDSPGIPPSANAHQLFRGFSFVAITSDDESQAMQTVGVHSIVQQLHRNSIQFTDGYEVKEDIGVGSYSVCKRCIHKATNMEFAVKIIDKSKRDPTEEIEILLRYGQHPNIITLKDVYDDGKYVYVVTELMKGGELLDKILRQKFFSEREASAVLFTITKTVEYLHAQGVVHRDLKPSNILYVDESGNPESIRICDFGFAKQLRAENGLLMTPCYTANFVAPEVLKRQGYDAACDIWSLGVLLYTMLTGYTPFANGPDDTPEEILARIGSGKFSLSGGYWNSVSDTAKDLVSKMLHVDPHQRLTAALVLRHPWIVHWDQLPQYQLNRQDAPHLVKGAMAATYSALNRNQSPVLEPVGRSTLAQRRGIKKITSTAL
Sequence of Tyrosine-protein kinase BTK (Q06187 whole entry): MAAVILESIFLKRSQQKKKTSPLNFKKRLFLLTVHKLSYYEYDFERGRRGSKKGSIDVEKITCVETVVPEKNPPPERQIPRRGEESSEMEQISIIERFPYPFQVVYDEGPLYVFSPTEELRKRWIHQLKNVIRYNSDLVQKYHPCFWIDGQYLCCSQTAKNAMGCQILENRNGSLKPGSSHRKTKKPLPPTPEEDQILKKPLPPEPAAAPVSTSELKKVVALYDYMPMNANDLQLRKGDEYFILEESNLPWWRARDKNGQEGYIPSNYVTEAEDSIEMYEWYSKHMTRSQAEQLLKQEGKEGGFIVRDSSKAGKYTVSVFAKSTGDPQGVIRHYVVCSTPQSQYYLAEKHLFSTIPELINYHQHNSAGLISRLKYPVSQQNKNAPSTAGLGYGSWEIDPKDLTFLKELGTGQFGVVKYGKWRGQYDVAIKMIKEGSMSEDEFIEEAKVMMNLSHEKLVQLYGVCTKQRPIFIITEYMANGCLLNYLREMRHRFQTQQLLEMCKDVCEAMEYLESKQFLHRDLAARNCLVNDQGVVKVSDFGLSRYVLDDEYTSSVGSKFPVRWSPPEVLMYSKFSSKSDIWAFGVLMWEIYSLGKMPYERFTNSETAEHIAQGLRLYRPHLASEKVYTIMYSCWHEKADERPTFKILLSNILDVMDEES
Sequence of Activated CDC42 kinase 1 (Q07912 whole entry): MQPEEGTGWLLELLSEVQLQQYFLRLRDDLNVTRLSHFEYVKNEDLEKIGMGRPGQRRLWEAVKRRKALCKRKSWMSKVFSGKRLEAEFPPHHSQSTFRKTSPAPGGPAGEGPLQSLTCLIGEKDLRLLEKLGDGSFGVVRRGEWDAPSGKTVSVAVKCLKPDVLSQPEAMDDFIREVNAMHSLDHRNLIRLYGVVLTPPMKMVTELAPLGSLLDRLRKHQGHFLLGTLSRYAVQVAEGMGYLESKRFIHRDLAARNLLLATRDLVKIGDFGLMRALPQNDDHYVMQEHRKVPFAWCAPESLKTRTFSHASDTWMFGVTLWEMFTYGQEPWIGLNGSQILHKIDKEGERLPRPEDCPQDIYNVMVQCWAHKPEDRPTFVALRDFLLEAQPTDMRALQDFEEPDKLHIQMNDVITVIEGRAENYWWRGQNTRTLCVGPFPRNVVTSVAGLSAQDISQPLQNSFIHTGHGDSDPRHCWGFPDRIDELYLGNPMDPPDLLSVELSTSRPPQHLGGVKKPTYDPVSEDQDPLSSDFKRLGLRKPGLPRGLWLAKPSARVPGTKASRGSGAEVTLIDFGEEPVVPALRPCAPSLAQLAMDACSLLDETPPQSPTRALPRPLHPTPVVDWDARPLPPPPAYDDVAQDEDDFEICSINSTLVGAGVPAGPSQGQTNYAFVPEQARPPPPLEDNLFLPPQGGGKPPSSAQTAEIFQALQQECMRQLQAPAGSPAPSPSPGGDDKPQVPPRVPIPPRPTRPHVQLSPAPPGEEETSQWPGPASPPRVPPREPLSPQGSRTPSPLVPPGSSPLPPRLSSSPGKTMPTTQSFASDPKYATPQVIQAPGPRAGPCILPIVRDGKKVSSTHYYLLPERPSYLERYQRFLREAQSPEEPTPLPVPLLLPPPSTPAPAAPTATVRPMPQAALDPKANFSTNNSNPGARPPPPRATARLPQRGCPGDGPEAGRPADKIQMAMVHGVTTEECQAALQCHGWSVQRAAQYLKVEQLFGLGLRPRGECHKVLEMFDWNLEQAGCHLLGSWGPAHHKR

In the case of `CCc1cc[n+](C2=C([N-]S(=O)(=O)c3cccs3)C(=O)c3ccccc3C2=O)cc1`, in assay [1], the AC50 was 2.76 µM (active). Further, the half-maximal inhibitory concentration (IC50) in [2] is 12.5 µM (active); in assay [3] it was 3.57 µM (active).

On to `O=C(NC1=C(NC2CCS(=O)(=O)C2)C(=O)c2ccccc2C1=O)c1ccccc1` (configuration not stated), for which the IC50 in assay [4] is 28.3 µM (inactive). The EC50 in assay [5] is 3.28 µM (active).

Take `CCCC(=O)NC(c1ccc(N(C)C)cc1)c1ccc2cccnc2c1O` (configuration not stated): in [1], the AC50 is 0.598 µM (active). Besides, the IC50 in assay [6] is 17.7 µM (active). For the same molecule, the EC50 in assay [5] is 3.42 µM (active).

Turning to `O=C1NC(=O)C(c2c[nH]c3ccccc23)=C1c1nc(N2CCNCC2)nc2ccccc12`, the Ki in assay [7] is > 6.31 µM (inactive); in assay [8], 0.000316 µM (active); in [9] it was > 3.98 µM (inactive); in assay [10], 1.26 µM (active); in [11] it was > 5.01 µM (inactive); in [12] it was 0.398 µM (active). Further, the Ki in assay [13] was > 3.98 µM (inactive); in assay [14] it was 0.0501 µM (active); in assay [15], 0.794 µM (active); in assay [16], > 2.51 µM (inactive); in assay [17], 0.501 µM (active); in assay [18], > 2.51 µM (inactive). Moreover, the Ki is 1 µM (active) in assay [19], > 3.98 µM (inactive) in [20], 2.51 µM (active) in [21] and 2 µM (active) in assay [22].

As for `COc1ccccc1N(/N=C1\Sc2ccccc2C1=O)C(C)=O`, the IC50 in assay [4] is 20 µM (inactive); in assay [2] it was 27.8 µM (active); in assay [3], 4.28 µM (active).
